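Values below derive from 48-hour exposures of cells grown in 96-well plates, with endpoints linearly interpolated between the two concentrations bracketing the appropriate inhibition level. Here, GI50 denotes the concentration required for 50% inhibition of growth. The concentration for full growth arrest is given as TGI.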
Legend:
Test in all cases: NCI-60 cell line screen, 48 h
[1] = tested on: UO-31 renal
[2] = tested on: HCC-2998 colon
[3] = tested on: SF-539 CNS
[4] = tested on: HCT-15 colon
[5] = tested on: EKVX NSCLC
[6] = tested on: M14 melanoma
[7] = tested on: SK-OV-3 ovarian
[8] = tested on: UACC-62 melanoma
[9] = tested on: HOP-62 NSCLC
[10] = tested on: SF-295 CNS
[11] = tested on: SNB-75 CNS
[12] = tested on: SK-MEL-28 melanoma
[13] = tested on: SN12C renal
[14] = tested on: MOLT-4 leukemia
[15] = tested on: U251 CNS
[16] = tested on: NCI-H226 lung
[17] = tested on: KM12 colon
[18] = tested on: SW-620 colon
[19] = tested on: HL-60(TB) leukemia
[20] = tested on: NCI-H460 lung
[21] = tested on: SR leukemia
[22] = tested on: HS 578T breast
[23] = tested on: HT29 colon
[24] = tested on: A549 NSCLC
[25] = tested on: PC-3 prostate
[26] = tested on: OVCAR-3 ovarian
[27] = tested on: T-47D breast
[28] = tested on: DU-145 prostate
[29] = tested on: OVCAR-4 ovarian
[30] = tested on: IGROV1 ovarian
[31] = tested on: SF-268 CNS
[32] = tested on: 786-0 renal
[33] = tested on: SK-MEL-2 melanoma
[34] = tested on: HOP-92 NSCLC
[35] = tested on: NCI-H522 lung
[36] = tested on: MDA-MB-231 breast
[37] = tested on: RXF 393 renal
[38] = tested on: SNB-19 CNS
[39] = tested on: UACC-257 melanoma
[40] = tested on: CCRF-CEM leukemia
[41] = tested on: SK-MEL-5 melanoma
[42] = tested on: K-562 leukemia
[43] = tested on: LOX IMVI melanoma
[44] = tested on: CAKI-1 renal
[45] = tested on: MALME-3M melanoma
[46] = tested on: MCF7 breast
[47] = tested on: OVCAR-5 ovarian
[48] = tested on: HCT-116 colon
[49] = tested on: A498 renal
[50] = tested on: TK-10 renal
[51] = tested on: RPMI-8226 leukemia
[52] = tested on: BT-549 breast
[53] = tested on: MDA-MB-435
[54] = tested on: NCI-H23 lung
[55] = tested on: COLO 205 colon
[56] = tested on: MDA-MB-468 breast
[57] = tested on: ACHN renal
[58] = tested on: OVCAR-8 ovarian

For `O=C(c1ccc(Cl)cc1)C1[C@H](c2ccccc2Br)[C@@H](c2ccccc2)NC12C(=O)Nc1ccc(Br)cc12` (stereo not given in full), the GI50 [1] was 4.83 µM, the TGI [1] was > 49 µM and the GI50 [2] was 8.14 µM. For the same compound, the TGI [2] was 33.8 µM, the GI50 [3] was > 49 µM and the TGI [3] was > 49 µM. For the same compound, the GI50 [4] was 7.65 µM, the TGI [4] was > 49 µM and the GI50 [5] was 13.3 µM. The TGI [5] was > 49 µM, the GI50 [6] was 7.81 µM and the TGI [6] was 34.9 µM. For the same compound, the GI50 [7] was 13.6 µM, the TGI [7] was > 49 µM and the GI50 [8] was 6.59 µM. The TGI [8] was > 49 µM, the GI50 [9] was 15.6 µM and the TGI [9] was > 49 µM. For the same compound, the GI50 [10] was 12.2 µM, the TGI [10] was > 49 µM and the GI50 [11] was 1.31 µM. The TGI [11] was > 49 µM, the GI50 [12] was 20.3 µM and the TGI [12] was > 49 µM. The GI50 [13] was 5.33 µM, the TGI [13] was 14 µM and the GI50 [14] was 2.4 µM. For the same compound, the TGI [14] was 25.2 µM, the GI50 [15] was 8.25 µM and the TGI [15] was 31.6 µM. The GI50 [16] was 5.52 µM, the TGI [16] was > 49 µM and the GI50 [17] was 7.46 µM. The TGI [17] was 23.4 µM, the GI50 [18] was 9.5 µM and the TGI [18] was > 49 µM. For the same compound, the GI50 [19] was 8.67 µM, the TGI [19] was 32.5 µM and the GI50 [20] was 5.94 µM. It also gave a TGI [20] of 15 µM, a GI50 [21] of 3.01 µM and a TGI [21] of 18.7 µM. For the same compound, the GI50 [22] was 7.13 µM, the TGI [22] was > 49 µM and the GI50 [23] was 6.21 µM. The TGI [23] was 17.2 µM, the GI50 [24] was 4.84 µM and the TGI [24] was > 49 µM. The GI50 [25] was 2.53 µM, the TGI [25] was 33.4 µM and the GI50 [26] was 5.07 µM. For the same compound, the TGI [26] was 29.5 µM, the GI50 [27] was 3.88 µM and the TGI [27] was > 49 µM. The GI50 [28] was 9.36 µM, the TGI [28] was > 49 µM and the GI50 [29] was 10.1 µM. For the same compound, the TGI [29] was > 49 µM, the GI50 [30] was 6.71 µM and the TGI [30] was > 49 µM. The GI50 [31] was 3.97 µM, the TGI [31] was > 49 µM and the GI50 [32] was 18.4 µM. For the same compound, the TGI [32] was > 49 µM, the GI50 [33] was 7.37 µM and the TGI [33] was > 49 µM. For the same compound, the GI50 [34] was 3.28 µM, the TGI [34] was > 49 µM and the GI50 [35] was 2.44 µM. It also gave a TGI [35] of 26.2 µM, a GI50 [36] of 5.01 µM and a TGI [36] of 23 µM. The GI50 [37] was 2.2 µM, the TGI [37] was 23.3 µM and the GI50 [38] was 23.2 µM. The TGI [38] was > 49 µM, the GI50 [39] was 10 µM and the TGI [39] was > 49 µM. The GI50 [40] was 5.97 µM, the TGI [40] was 26.5 µM and the GI50 [41] was 10.6 µM. The TGI [41] was 38 µM, the GI50 [42] was 6.65 µM and the TGI [42] was > 49 µM. It also gave a GI50 [43] of 4.95 µM, a TGI [43] of 13.5 µM and a GI50 [44] of 1.88 µM. The TGI [44] was > 49 µM, the GI50 [45] was 13.1 µM and the TGI [45] was > 49 µM. The GI50 [46] was 2.64 µM, the TGI [46] was > 49 µM and the GI50 [47] was 10.2 µM. The TGI [47] was > 49 µM, the GI50 [48] was 2.34 µM and the TGI [48] was 11.7 µM. For the same compound, the GI50 [49] was > 49 µM, the TGI [49] was > 49 µM and the GI50 [50] was 20.4 µM. The TGI [50] was > 49 µM, the GI50 [51] was 8.15 µM and the TGI [51] was > 49 µM. The GI50 [52] was 5.97 µM, the TGI [52] was > 49 µM and the GI50 [53] was 7.74 µM. The TGI [53] was 22.3 µM, the GI50 [54] was 7.91 µM and the TGI [54] was > 49 µM. The GI50 [55] was 7.1 µM, the TGI [55] was 15.5 µM and the GI50 [56] was 1.55 µM. The TGI [56] was 14.2 µM, the GI50 [57] was 10 µM and the TGI [57] was > 49 µM. The GI50 [58] was 11 µM and the TGI [58] was > 49 µM.
`Cc1cncc2cccc(S(=O)(=O)N3CCCNC[C@@H]3C)c12` was tested, and the GI50 [56] was 19 µM and the TGI [56] was > 91.1 µM.
With `N#CCCCCCn1c2ccccc2c2c3c(c4c5ccccc5[nH]c4c21)C(=O)N(O)C3=O` the GI50 [56] was 1.48 µM and the TGI [56] was 5.98 µM.
With `COc1cc(C2CC(c3cc(Cl)c(C)cc3O)=NN2c2ccc(S(N)(=O)=O)cc2)cc(OC)c1OC` (stereo not given) the GI50 [56] was 2.64 µM and the TGI [56] was 9.07 µM.
With `COc1ccc(C2C3=C(COC3=O)N(CCO)c3cc4c(cc32)CCC4)cc1OC` (stereo not given) the GI50 [56] was 0.184 µM.
With `Cc1cc2nc3c4cc(Cl)ccc4n(CC(=O)NCCN(C)C)c3nc2cc1C` the GI50 [56] was 11.3 µM and the TGI [56] was 23.8 µM.

From PubChem BioAssay (NCI)
